Laboratory results published in patent US10300052B2, “Methods for increasing CFTR activity” (THE UAB RESEARCH FOUNDATION, priority 2012, dated 2019).

System: porcine trachea CFTR−/−
Experiment: μOCT imaging of airway epithelial function in porcine trachea, CFTR-/- animals
Conditions: sequential ivacaftor 10 μM, forskolin 100 nM, acetylcholine 100 μM in bath, 37° C. (FIG. 7G)
Text: FIGS. 7A-7H show the effects of CFTR activators on airway epithelial function in intact porcine trachea by μOCT. FIGS. 7A-7B show representative μOCT images for a CFTR−/− (FIG. 7A) and CFTR+/+ (FIG. 7B) animal. FIGS. 7C-7F, respectively, show ASL depth (FIG. 7C), PCL depth (FIG. 7D), CBF (FIG. 7E) and MCT (FIG. 7F) measurements derived from μOCT images from CFTR−/− and CFTR+/+ animals. FIGS. 7G and 7H show the response of epithelial functional parameters, namely ASL depth and MCT in CFTR−/− (FIG. 7G) and CFTR+/+(FIG. 7H) animals in response to sequential pharmacologic intervention by ivacaftor (10 μM), forskolin (100 nM) and acetylcholine (100 μM).
To further investigate the role of CFTR activators in modulating airway epithelial cell function, CFTR activators were studied in combination with porcine trachea. In this example, porcine trachea from animals having a mutated CFTR (CFTR (−/−) and from animals having a WT-CFTR (CFTR+/+) were evaluated for ASL depth, PCL depth, CBF and MCT. The results are shown in FIGS. 7A-7H.
FIGS. 7G and 7H show the response of epithelial functional parameters, namely ASL depth, CBF and MCT in CFTR−/− and CFTR+/+ animals in response to sequential pharmacologic intervention by ivacaftor (10 μM), forskolin (100 nM) and acetylcholine (100 μM); in this experiment, acetylcholine served as a positive control to induce glandular extrusion in CF tissue). In these experiments, agonists were added to the bath solution and all experiments were conducted under physiological conditions (37° C. and 100% humidity). […] In contrast to FIG. 7G, ASL depth, CBF and MCT were all increased in response to ivacaftor treatment in CFTR+/+ animals, consistent with the results described above for human tissue.
Normal piglet tracheas were obtained from Exemplar Genetics (Sioux Center, Iowa). Tissue were dissected from one-day-old piglets and shipped on wet ice in DMEM. A modified protocol based on airway tissue handling and preparation methods developed by Ballard et al. (Am J Physiol Lung Cell Mol Physiol 298: L270-276, 2010) was employed. Tracheas were immersed in 80 mL Ringer bicarbonate solution (KRB) baths at room temperature and slowly warmed to 37° C. After four hours of pretreatment, the tracheas were removed from the KRB. Accessible mucus and liquid were aspirated from the airway lumens and the tracheal ends were cannulated so that the serosal surface was bathed in KRB [29] without contacting the mucosal surface, as previously described (Ballard et al., Am J Physiol Lung Cell Mol Physiol 298: L270-276, 2010; Martens, et al., Am J Physiol Lung Cell Mol Physiol 301: L236-246, 2011). Tracheas were allowed to equilibrate in KRB bubbled with 95% 02 and 5% CO2 at 37° C. and the luminal side exposed to conditioned air at 100% humidity for 2 hours prior to mOCT imaging (Sleigh et al., Comp Biochem Physiol A Comp Physiol 94: 359-364, 1989).
The μOCT system is a spectral-domain OCT implementation with several improvements to standard OCT that yield high resolution in both lateral and axial directions. The general layout and axial resolution characterization have been described (Liu et al., PLOSOne, 8(1), E54473-2013). A super-continuum source (Fianium SC450) provides the high-bandwidth, short coherence length light necessary for high axial resolution ([…]). A typical OCT system includes an interferometer with the reference and sample arms intersecting at a beamsplitter. The beamsplitter is replaced in μOCT with a 45 degree rod mirror, which apodizes the sample beam by introducing a circular obscuration in the center to achieve a balance of good lateral resolution (2 μm) and long depth of focus (0.2 mm). Custom software is employed to control the galvanometer scanning motors while acquiring spectral data from the line camera. […]

CC(C)(C)c1cc(C(C)(C)C)c(NC(=O)c2c[nH]c3ccccc3c2=O)cc1O [ivacaftor]
no response: ASL depth response | CBF response | MCT response
